We go through two compounds from paper PMC9108603, “Microbial Metabolite Inspired β‐Peptide Polymers Displaying Potent and Selective Antifungal Activity” (Advanced Science, 2022).

Converted amounts (≈) assume the structure as drawn.

The test system of assay [1] is endothelial cells (HUVEC). Put plainly: Cytotoxicity, MTT assay. It counts as cell-based, human. The conditions noted are these: Homo sapiens, HUVEC, 24 h, 37 °C, 800 to 1.6 μg/mL, 50% cell viability. As for the experimental part: (§1) Cytotoxicity assay. Cytotoxicity tests were performed on NIH 3T3 fibroblast cells, endothelial cells (HUVEC), macrophage (RAW264.7), liver cells (LO2), kidney cells (COS7) and enterocyte (NCM-460) using MTT assay. Cells were cultured in DMEM supplemented with 10% FBS, 5% penicillin, 2 mM L-glutamine and incubated at 37 °C in 5% CO 2. Cells were harvested and seeded onto 96-well plates at a density of 1.0 × 10^4 cells per well and incubated for 24 h. On each plate, wells containing growth medium only and cells in growth medium without any antifungal agent were used as the negative and positive control, […]
concentrations ranging from 800 to 1.6 μg/mL. Medium in each cell-containing well was replaced with 100 μL of the corresponding polymer solution, and the plates were incubated at 37 °C for 24 h. Then, the solution in each well was switched to 100 µL MTT solution (1 mg/mL) and the plate was incubated in the dark at 37 °C for 4 h. […] Then 85 µL of the supernatant from each well was transferred to the corresponding well in a new plate, followed by absorbance measurement at 570 nm on a plate reader. […] The percentage of cell viability in each test well, relative to the positive control (which defines 100%) w as calculated from [% fibroblast growth = (A polymer – Ablank)/(Acontrol – A blank) × 100]. […]

Another assay relates to enterocyte (NCM-460). Put plainly: Cytotoxicity, MTT assay. It counts as cell-based. The conditions noted are these: Homo sapiens, NCM460, 24 h, 37 °C, 800 to 1.6 μg/mL, 50% cell viability. As for the experimental part: as §1
(§2) concentrations ranging from 800 to 1.6 μg/mL. Medium in each cell-containing well was replaced with 100 μL of the corresponding polymer solution, and the plates were incubated at 37 °C for 24 h. Then, the solution in each well was switched to 100 µL MTT solution (1 mg/mL) and the plate was incubated in the dark at 37 °C for 4 h. After centrifuge (to prevent the possible loss of formazan crystals) and removal of the supernatant, 100 μL DMSO was added to each well to dissolve the formed formazan under stirred for 20 min. Then 85 µL of the supernatant from each well was transferred to the corresponding well in a new plate, followed by absorbance measurement at 570 nm on a plate reader. Each antifungal agent was tested in triplicate in each assay, and the experiment was conducted at least twice on a different day. The percentage of cell viability in each test well, relative to the positive control (which defines 100%) w as calculated from [% fibroblast growth = (A polymer – Ablank)/(Acontrol – A blank) × 100]. The IC 50 value is the minimum concentration to inhibit 50% of fibroblast cell growth. All measurements were performed with three replicates.

The next assay deals with kidney cells (COS7). As to the kind of experiment: Cytotoxicity, MTT assay. The class given is cell-based. The conditions noted are these: Chlorocebus aethiops, COS-7, 24 h, 37 °C, 800 to 1.6 μg/mL, 50% cell viability. As for the experimental part: as §1, §2
The next assay relates to NIH 3T3 fibroblast cells. Put plainly: Cytotoxicity, MTT assay. The class given is cell-based. The conditions noted are these: Mus musculus, NIH3T3, 24 h, 37 °C, 800 to 1.6 μg/mL, 50% cell viability. The procedure:
as §1, §2

The test system of the next assay is liver cells (LO2). As to the kind of experiment: Cytotoxicity, MTT assay. The class given is cell-based. The conditions noted are these: 24 h, 37 °C, 800 to 1.6 μg/mL, 50% cell viability. As for the experimental part:
as §1, §2

Another assay deals with macrophage (RAW264.7). Put plainly: Cytotoxicity, MTT assay. It counts as cell-based. The conditions noted are these: Mus musculus, 24 h, 37 °C, 800 to 1.6 μg/mL, 50% cell viability. As for the experimental part:
as §1, §2

Assay [2] relates to mature C. albicans biofilms. Put plainly: Eradication of mature biofilm (MTT). It counts as cell-based, Candida albicans. The conditions noted are these: 48 h biofilm, then 48 h treatment at 37 °C.
The subject of another assay is C. albicans (K1 strain). As to the kind of experiment: Intracellular ROS detection (DCFH fluorescence). The class given is cell-based, Candida albicans. The conditions noted are these: DCF fluorescence, positive control 40 mM H2O2; rises with time and PDAP20 concentration. The procedure: Energy depletion analysis. For energy depletion experiments, cell suspension of C. albicans (K1 strain) at 3.0 × 10^6 CFU/mL was pretreated with RPMI containing 5 mM NaN 3 for 1 h. For antifungal efficiency assay, a fresh cell suspension pretreated or non-pretreated with NaN 3 were incubated with 50 μg/mL PDAP 20 or without an antifungal agent (as energy depletion control) for 24 h. The fresh cell suspension without antifungal agents before and after incubation with NaN 3 for 24 h were used as the controls, respectively. The suspensions were diluted and plated on YPD agar. The plates were incubated at 30 °C for 24 h and colony amounts were counted. The cell viability after incubation at 4 °C with 50 μg/mL PDAP 20 or without an antifungal agent (as positive control) was measured using the same method. […]
For flow cytometry experiment, a fresh cell suspension pretreated or non-pretreated with NaN 3 was incubated with 50 μg/mL CPM-PDAP 20 for 1 h and 2 h, respectively. Fungal cells were washed by PBS to remove polymers, and 5.0 × 10^4 cells were counted and anaysized. The polymer uptake was calculated by flow cytometry (Backman). Furthermore, cell suspensions were incubated with 10 μg/mL PI for 10 min for calculated PI uptake. […]
DNA fragmentation assay. Apoptosis induced DNA fragments in C. albicans cells were analyzed using the TdT-mediated dUTP Nick-End Labeling (TUNEL) method. […]

For the compound `C[C@@H]1[C@H](O)[C@@H](C)/C=C/C=C/C=C/C=C/C=C/C=C/C=C/[C@H](O[C@@H]2O[C@H](C)[C@@H](O)[C@H](N)[C@@H]2O)C[C@@H]2O[C@](O)(C[C@@H](O)C[C@@H](O)[C@H](O)CC[C@@H](O)C[C@@H](O)CC(=O)O[C@H]1C)C[C@H](O)[C@H]2C(=O)O` [AmpB, amphotericin B], the IC50 in assay [1] is 8.8 µg/mL (≈ 9.52 µM); in the assay with enterocyte (NCM-460), 40 µg/mL (≈ 43.3 µM); in the assay with kidney cells (COS7), 25 µg/mL (≈ 27.1 µM); in the assay on NIH 3T3 fibroblast cells, 1.6 µg/mL (≈ 1.73 µM); in the assay with liver cells (LO2), 77 µg/mL (≈ 83.3 µM); with macrophage (RAW264.7) it was 128 µg/mL (≈ 139 µM).
With poly(DL‐diaminopropionic acid) [PDAP20], in assay [2], the “Concentration that eradicates mature biofilms (SMIC80)” value came out at 50 µg/mL. Further, the “Intracellular ROS level” value with C. albicans (K1 strain) is on record as “higher than that of the hydrogen peroxide‐treated fungal cells”.
